# Tests used:
# barnyard grass [1] = assay: Test Example 5: herbicidal effect by foliage application, plastic box (Table 20, symbol H); assay type: in vivo, barnyard grass (Echinochloa crus-galli); settings: amount of applied herbicide 320 g/ha; foliage application after 14-day growth; evaluated three weeks after application
# Summary of the method: (§1)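 Sow seeds spot-wise in sterilized diluvial soil; cover with ~1.5 cm soil. Grow 14 days in greenhouse, 25° C. to 30° C. Spray foliage with emulsion diluted to predetermined amount. Rate effect after 3 weeks.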
# barnyard grass [2] = assay: Test Example 3: herbicidal effect by foliage application, Wagner pot (Table 18, symbol H); assay type: in vivo, barnyard grass (Echinochloa crus-galli); settings: 320 g/ha
# Summary of the method: (§2)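 Plants were sown in alluvial soil held under 0.1–0.5 cm standing water and grown 14 days in a greenhouse at 25–30 °C. An emulsifiable formulation, water-diluted to the set dose, was then sprayed onto the foliage, and effects were scored three weeks later using previously defined criteria.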
# velvetleaf [3] = assay: Test Example 4: herbicidal effect by soil treatment (Table 19, symbol M); assay type: in vivo, velvetleaf (Abutilon theophrasti); settings: amount of applied herbicide 320 g/ha
# Summary of the method: (§3)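 Applied as a water-diluted emulsion, the compound was sprayed onto soil covering newly sown seeds. Evaluation came three weeks after application, in a greenhouse held at 25° C. to 30° C.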
# Chinese sprangletop = assay: Test Example 3: herbicidal effect by foliage application, Wagner pot (Table 18, symbol D); assay type: in vivo, chinese sprangletop (Leptochloa chinensis); settings: 320 g/ha
# Summary of the method: as §2
# Italian ryegrass [4] = assay: Test Example 4: herbicidal effect by soil treatment (Table 19, symbol K); assay type: in vivo, Italian ryegrass (Lolium multiflorum); settings: amount of applied herbicide 320 g/ha
# Summary of the method: as §3
# southern crabgrass [5] = assay: Test Example 4: herbicidal effect by soil treatment (Table 19, symbol F); assay type: in vivo, southern crabgrass (Digitaria ciliaris); settings: amount of applied herbicide 320 g/ha
# Summary of the method: as §3
# lambsquarters [6] = assay: Test Example 5: herbicidal effect by foliage application, plastic box (Table 20, symbol O); assay type: in vivo, lambsquarters (Chenopodium album); settings: amount of applied herbicide 320 g/ha; foliage application after 14-day growth; evaluated three weeks after application
# Summary of the method: as §1
# persian speedwell [7] = assay: Test Example 5: herbicidal effect by foliage application, plastic box (Table 20, symbol R); assay type: in vivo, Persian speedwell (Veronica persica); settings: amount of applied herbicide 320 g/ha; foliage application after 14-day growth; evaluated three weeks after application
# Summary of the method: as §1
# false cleavers [8] = assay: Test Example 4: herbicidal effect by soil treatment (Table 19, symbol Q); assay type: in vivo, false cleavers (Galium spurium); settings: amount of applied herbicide 320 g/ha
# Summary of the method: as §3
# blackgrass [9] = assay: Test Example 5: herbicidal effect by foliage application, plastic box (Table 20, symbol J); assay type: in vivo, blackgrass (Alopecurus myosuroides); settings: amount of applied herbicide 320 g/ha; foliage application after 14-day growth; evaluated three weeks after application
# Summary of the method: as §1
# Japanese bulrush = assay: Test Example 1: herbicidal activity, application before weed generation under submerged conditions (Table 16, symbol B); assay type: in vivo, Japanese bulrush (Schoenoplectus juncoides); settings: amount of applied herbicide 320 g/ha
# Summary of the method: (§4)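 Submerged Wagner pots (alluvial soil, 4 cm water) sown with weed seeds and planted with 2.5-leaf rice seedlings; emulsifiable concentrate diluted in water applied to water surface on sowing day. Held in greenhouse at 25-30 °C; injury scored 0-5 by herbicidal rate after three weeks.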
# green foxtail [10] = assay: Test Example 4: herbicidal effect by soil treatment (Table 19, symbol G); assay type: in vivo, green foxtail (Setaria viridis); settings: amount of applied herbicide 320 g/ha
# Summary of the method: as §3
# redroot pigweed [11] = assay: Test Example 4: herbicidal effect by soil treatment (Table 19, symbol N); assay type: in vivo, redroot pigweed (Amaranthus retroflexus); settings: amount of applied herbicide 320 g/ha
# Summary of the method: as §3
# chickweed [12] = assay: Test Example 4: herbicidal effect by soil treatment (Table 19, symbol P); assay type: in vivo, common chickweed (Stellaria media); settings: amount of applied herbicide 320 g/ha
# Summary of the method: as §3
# late watergrass = assay: Test Example 1: herbicidal activity, application before weed generation under submerged conditions (Table 16, symbol A); assay type: in vivo, late watergrass (Echinochloa oryzicola); settings: amount of applied herbicide 320 g/ha
# Summary of the method: as §4
# redroot pigweed [13] = assay: Test Example 5: herbicidal effect by foliage application, plastic box (Table 20, symbol N); assay type: in vivo, redroot pigweed (Amaranthus retroflexus); settings: amount of applied herbicide 320 g/ha; foliage application after 14-day growth; evaluated three weeks after application
# Summary of the method: as §1
# persian speedwell [14] = assay: Test Example 4: herbicidal effect by soil treatment (Table 19, symbol R); assay type: in vivo, Persian speedwell (Veronica persica); settings: amount of applied herbicide 320 g/ha
# Summary of the method: as §3
# Italian ryegrass [15] = assay: Test Example 5: herbicidal effect by foliage application, plastic box (Table 20, symbol K); assay type: in vivo, Italian ryegrass (Lolium multiflorum); settings: amount of applied herbicide 320 g/ha; foliage application after 14-day growth; evaluated three weeks after application
# Summary of the method: as §1
# rice flat sedge = assay: Test Example 3: herbicidal effect by foliage application, Wagner pot (Table 18, symbol E); assay type: in vivo, rice flat sedge (Cyperus iria); settings: 320 g/ha
# Summary of the method: as §2
# false cleavers [16] = assay: Test Example 5: herbicidal effect by foliage application, plastic box (Table 20, symbol Q); assay type: in vivo, false cleavers (Galium spurium); settings: amount of applied herbicide 320 g/ha; foliage application after 14-day growth; evaluated three weeks after application
# Summary of the method: as §1
# windgrass [17] = assay: Test Example 4: herbicidal effect by soil treatment (Table 19, symbol L); assay type: in vivo, windgrass (Apera spica-venti); settings: amount of applied herbicide 320 g/ha
# Summary of the method: as §3
# chickweed [18] = assay: Test Example 5: herbicidal effect by foliage application, plastic box (Table 20, symbol P); assay type: in vivo, common chickweed (Stellaria media); settings: amount of applied herbicide 320 g/ha; foliage application after 14-day growth; evaluated three weeks after application
# Summary of the method: as §1
# barnyard grass [19] = assay: Test Example 4: herbicidal effect by soil treatment (Table 19, symbol H); assay type: in vivo, barnyard grass (Echinochloa crus-galli); settings: amount of applied herbicide 320 g/ha
# Summary of the method: as §3
# green foxtail [20] = assay: Test Example 5: herbicidal effect by foliage application, plastic box (Table 20, symbol G); assay type: in vivo, green foxtail (Setaria viridis); settings: amount of applied herbicide 320 g/ha; foliage application after 14-day growth; evaluated three weeks after application
# Summary of the method: as §1
# oval-leafed pondweed = assay: Test Example 1: herbicidal activity, application before weed generation under submerged conditions (Table 16, symbol C); assay type: in vivo, oval-leafed pondweed (Monochoria vaginalis); settings: amount of applied herbicide 320 g/ha
# Summary of the method: as §4
# windgrass [21] = assay: Test Example 5: herbicidal effect by foliage application, plastic box (Table 20, symbol L); assay type: in vivo, windgrass (Apera spica-venti); settings: amount of applied herbicide 320 g/ha; foliage application after 14-day growth; evaluated three weeks after application
# Summary of the method: as §1
# lambsquarters [22] = assay: Test Example 4: herbicidal effect by soil treatment (Table 19, symbol O); assay type: in vivo, lambsquarters (Chenopodium album); settings: amount of applied herbicide 320 g/ha
# Summary of the method: as §3
# velvetleaf [23] = assay: Test Example 5: herbicidal effect by foliage application, plastic box (Table 20, symbol M); assay type: in vivo, velvetleaf (Abutilon theophrasti); settings: amount of applied herbicide 320 g/ha; foliage application after 14-day growth; evaluated three weeks after application
# Summary of the method: as §1
# blackgrass [24] = assay: Test Example 4: herbicidal effect by soil treatment (Table 19, symbol J); assay type: in vivo, blackgrass (Alopecurus myosuroides); settings: amount of applied herbicide 320 g/ha
# Summary of the method: as §3
# wild oat [25] = assay: Test Example 5: herbicidal effect by foliage application, plastic box (Table 20, symbol I); assay type: in vivo, wild oat (Avena fatua); settings: amount of applied herbicide 320 g/ha; foliage application after 14-day growth; evaluated three weeks after application
# Summary of the method: as §1
# southern crabgrass [26] = assay: Test Example 5: herbicidal effect by foliage application, plastic box (Table 20, symbol F); assay type: in vivo, southern crabgrass (Digitaria ciliaris); settings: amount of applied herbicide 320 g/ha; foliage application after 14-day growth; evaluated three weeks after application
# Summary of the method: as §1
# wild oat [27] = assay: Test Example 4: herbicidal effect by soil treatment (Table 19, symbol I); assay type: in vivo, wild oat (Avena fatua); settings: amount of applied herbicide 320 g/ha
# Summary of the method: as §3
compound,measurement,setting,value
CCCC(=O)Oc1c(C)nn(C)c(=O)c1-c1c(-c2ccccc2OCC)sc2cc(F)c(F)cc12 [5-017],"Herbicidal effect by foliage application, H: barnyard grass",barnyard grass [1],3 (Herbicidal rate of 40% or more and less than 70%)
same,herbicidal effect on barnyard grass (H),barnyard grass [2],5 (Herbicidal rate of 90% or more (almost completely withered))
same,"M: velvetleaf, herbicidal effect grade",velvetleaf [3],3 (Herbicidal rate of 40% or more and less than 70%)
same,herbicidal effect on Chinese sprangletop (D),Chinese sprangletop,0 (Herbicidal rate of 5% or less (almost no effect))
same,"K: Italian ryegrass, herbicidal effect grade",Italian ryegrass [4],0 (Herbicidal rate of 5% or less (almost no effect))
same,"F: southern crabgrass, herbicidal effect grade",southern crabgrass [5],4 (Herbicidal rate of 70% or more and less than 90%)
same,"Herbicidal effect by foliage application, O: lambsquarters",lambsquarters [6],1 (Herbicidal rate of 5% or more and less than 20%)
same,"Herbicidal effect by foliage application, R: persian speedwell",persian speedwell [7],5 (Herbicidal rate of 90% or more (almost completely withered))
same,"Q: false cleavers, herbicidal effect grade",false cleavers [8],4 (Herbicidal rate of 70% or more and less than 90%)
same,"Herbicidal effect by foliage application, J: blackgrass",blackgrass [9],4 (Herbicidal rate of 70% or more and less than 90%)
same,"Herbicidal effect, B: Japanese bulrush",Japanese bulrush,2 (Herbicidal rate of 20% or more and less than 40%)
same,"G: green foxtail, herbicidal effect grade",green foxtail [10],4 (Herbicidal rate of 70% or more and less than 90%)
same,"N: redroot pigweed, herbicidal effect grade",redroot pigweed [11],5 (Herbicidal rate of 90% or more (almost completely withered))
same,"P: chickweed, herbicidal effect grade",chickweed [12],4 (Herbicidal rate of 70% or more and less than 90%)
same,"Herbicidal effect, A: late watergrass",late watergrass,3 (Herbicidal rate of 40% or more and less than 70%)
same,"Herbicidal effect by foliage application, N: redroot pigweed",redroot pigweed [13],2 (Herbicidal rate of 20% or more and less than 40%)
same,"R: persian speedwell, herbicidal effect grade",persian speedwell [14],5 (Herbicidal rate of 90% or more (almost completely withered))
same,"Herbicidal effect by foliage application, K: Italian ryegrass",Italian ryegrass [15],0 (Herbicidal rate of 5% or less (almost no effect))
same,herbicidal effect on rice flat sedge (E),rice flat sedge,5 (Herbicidal rate of 90% or more (almost completely withered))
same,"Herbicidal effect by foliage application, Q: false cleavers",false cleavers [16],5 (Herbicidal rate of 90% or more (almost completely withered))
same,"L: windgrass, herbicidal effect grade",windgrass [17],2 (Herbicidal rate of 20% or more and less than 40%)
same,"Herbicidal effect by foliage application, P: chickweed",chickweed [18],5 (Herbicidal rate of 90% or more (almost completely withered))
same,"H: barnyard grass, herbicidal effect grade",barnyard grass [19],4 (Herbicidal rate of 70% or more and less than 90%)
same,"Herbicidal effect by foliage application, G: green foxtail",green foxtail [20],0 (Herbicidal rate of 5% or less (almost no effect))
same,"Herbicidal effect, C: oval-leafed pondweed",oval-leafed pondweed,2 (Herbicidal rate of 20% or more and less than 40%)
same,"Herbicidal effect by foliage application, L: windgrass",windgrass [21],3 (Herbicidal rate of 40% or more and less than 70%)
same,"O: lambsquarters, herbicidal effect grade",lambsquarters [22],4 (Herbicidal rate of 70% or more and less than 90%)
same,"Herbicidal effect by foliage application, M: velvetleaf",velvetleaf [23],4 (Herbicidal rate of 70% or more and less than 90%)
same,"J: blackgrass, herbicidal effect grade",blackgrass [24],0 (Herbicidal rate of 5% or less (almost no effect))
same,"Herbicidal effect by foliage application, I: wild oat",wild oat [25],3 (Herbicidal rate of 40% or more and less than 70%)
same,"Herbicidal effect by foliage application, F: southern crabgrass",southern crabgrass [26],1 (Herbicidal rate of 5% or more and less than 20%)
same,"I: wild oat, herbicidal effect grade",wild oat [27],3 (Herbicidal rate of 40% or more and less than 70%)
